We go through two compounds from PMC7672604, “Design, Synthesis, Molecular Docking, Antiapoptotic and Caspase-3 Inhibition of New 1,2,3-Triazole/Bis-2(1H)-Quinolinone Hybrids” (Molecules, 2020).

Data set [1] deals with testis of I/R rats. Description: Testicular TAC in testis of I/R rats. It is filed as in vivo. The settings on record: i.p. 1 h before ischemia, dose equivalent to 30 mg NAC, mean ± S.E.M, n=6. How it is done: (§1) This section describes the methods used in the investigation of the antiapoptotic effect of the novel compounds 6a–g then supported by further histological and molecular docking studies. The antiapoptotic effect of 6a–g was evaluated through evaluation of decreasing tissue damage induced by I/R in the testis of rats in a dose equivalent to 30 mg N-acetylcysteine (NAC) as an antiapoptotic reference. The rats were subdivided into sham, I/R, NAC and treated with tested compounds groups, each group comprises of 6 rats (weighing 140–150 g). The targeted compounds 6a–g were administrated intra-peritoneal (i.p.) an hour before ischemia, which lasted for (0.5 h) then reperfusion (1 h) followed by cutting the organ (Figure 5). Different biomarkers concentrations were measured in serum to detect testis injury due to ischemia/reperfusion (I/R).
(§2) During the long testicular torsion, oxidation damage affects the testis by the production of the reactive oxygen species (ROS). Excessive generation of the ROS interacts with lipids, proteins, and nucleic acids, which has an adverse effect on cell function and damage. The testis has high cell metabolism such that excessive ROS production weakens antioxidant capacity. Malondialdehyde (MDA) is the end product of lipid peroxidation and increased MDA level has an adverse effect on sperm fertility. Furthermore, total antioxidant capacity (TAC) is the measure of the number of free radicals scavenged by a test solution, being used to evaluate the antioxidant capacity of biological samples [55]. The data collected in Table S3 (Supplementary Materials) have identified that there was a significant increase in testicular MDA with a significant decrease in testicular TAC in the I/R group as well as compounds 6d and 6f when compared to sham control and NAC groups. These findings indicate that both 6d and 6f are the worst antiapoptotic compounds compound amongst all the synthesized compounds.
TAC was assessed by the colorimetric technique using commercial kits (El-Minia, Egypt) (See Supplementary Materials). Testicular MDA, an index of lipid peroxidation, was determined by using 1,1,3,3-tetramethoxypropane as standard (See Supplementary Materials). […]
1.3.Determination of Total Antioxidant Capacity (Testicular tissue)
Free radicals or reactive oxygen species (ROS) are produced during biochemical redox reactions as part
of normal physiological cell metabolism (protection from infectious organisms) and as a response to
environmental factors such as UV light, cigarette smoke, environmental pollutants, and g-radiation. Once
formed, ROS attack cellular components causing damage to lipids, proteins, and DNA which can initiate
Antioxidants in the sample reduce dark blue-green colored ABTS radical to colorless reduced ABTS
form. The change of absorbance at 660 nm is related with total antioxidant level of the sample. The assay
is calibrated with a stable antioxidant standard solution which is traditionally named as Trolox
Equivalent that is a vitamin E analog.
The determination of the antioxidative capacity is performed by the reaction of antioxidants in the
sample with a defined amount of exogenously provide hydrogen peroxide (H2O2) The antioxidants in the
sample eliminate a certain amount of the provided hydrogen peroxide. The residual H2O2 is determined
(1 picture or pasted object on this page, not shown here)
colorimetrically by an enzymatic reaction which involves the conversion of 3,5,dichloro–2–hydroxy
benzensulphonate to a colored product.
* Dilute R11000 times immediately before use (10 μl R1 + 10 ml d. Water mix Discard after use.
*Working Reagent: mix equal volumes of R2 and R3 immediately before use.
*Dilute sample if necessary
Total Antioxidant concentration […]

In data set [2] the test system is testis of I/R rats. Put plainly: Testicular testosterone in testis of I/R rats (ELISA). The settings on record: i.p. 1 h before ischemia, dose equivalent to 30 mg NAC, mean ± S.E.M, n=6. Further details: unit not given here. It counts as in vivo. How it is done: as §1
(§3) It was reported that excessive apoptosis in the testis could damage the Leydig cells and apparent decline in serum testosterone levels. Furthermore, excessive apoptosis of Leydig cells results in decreased testosterone. The assays of the apoptotic biomarkers (testicular testosterone and TNFα) were done in comparison with the sham and NAC treated group and the results were outlined in Table S4 (Supplementary Materials).
(§4) TNF-α was measured by ELISA kit (Elabscience, Houston, TX, USA). Caspase-3 was measured by ELISA kit Cusabio, Houston, TX, USA (See Supplementary Materials). Testosterone concentration in testicular samples was determined by the ELISA kit (“DRG”, Marburg, Germany) (See Supplementary Materials).
1.2.Determination of serum testosterone using ELISA kit
This ELISA kit uses the Competitive-ELISA principle. The micro ELISA plate provided in this kit has been pre-coated with T. During the reaction, T in the sample or standard competes with a fixed amount of T on the solid phase supporter for sites on the Biotinylated Detection Ab specific to T. Excess conjugate and unbound sample or standard are washed from the plate, and Avidin conjugated to Horseradish Peroxidase (HRP) are added to each microplate well and incubated. Then a TMB substrate solution is added to each well. The enzyme-substrate reaction is terminated by the addition of stop solution and the color change is measured spectrophotometrically at a wavelength of 450 nm ± 2 nm. The concentration of T in the samples is then determined by comparing the OD of the samples to the standard […]
Serum: Allow samples to clot for 2 hours at room temperature or overnight at 4℃ before centrifugation for 20 min at 1000×g at 2-8℃. Collect the supernatant to carry out the assay. Blood collection tubes should be disposable and be non-endotoxin. […]
1. Bring all reagents to room temperature (18~25℃) before use. Follow the Microplate reader manual for set-up and preheat it for 15 min before OD measurement.
2. Wash Buffer: Dilute 30 mL of Concentrated Wash Buffer with 720 mL of deionized or distilled water to prepare 750 mL of Wash Buffer. Note: if crystals have formed in the concentrate, warm it in a 40℃ water-bath and mix it gently until the crystals have completely dissolved.
3. Standard working solution: Centrifuge the standard at 10,000×g for 1min. Add 1.0mL of Reference Standard &Sample Diluent, let it stand for 10min and invert it gently several times. After it dissolves fully, mix it thoroughly with a pipette. This reconstitution produces a working solution of 20 ng/mL. Then make serial dilutions as needed. The recommended dilution gradient is as […]
Dilution method: Take 7 EP tubes, add 500uL of Reference Standard & Sample Diluent to each tube. Pipette 500uL of the 20 ng/mL working solution to the first tube and mix up to produce a 10 ng/mL working solution. Pipette 500uL of the solution from the former tube to the latter one according to this step. The illustration below is for reference. Note: the last tube is regarded as a blank. Don’t pipette solution into it from the former tube.
For orientation: ELISA stands for enzyme-linked immunosorbent assay.

In data set [3] the test system is testis of I/R rats. Description: Testicular MDA in testis of I/R rats. It is filed as in vivo. Particulars: i.p. 1 h before ischemia, dose equivalent to 30 mg NAC, mean ± S.E.M, n=6. The procedure: as §1, §2
TAC was assessed by the colorimetric technique using commercial kits (El-Minia, Egypt) (See Supplementary Materials). Testicular MDA, an index of lipid peroxidation, was determined by using 1,1,3,3-tetramethoxypropane as standard (See Supplementary Materials).

Data set [4] has as its system testis of I/R rats. Put plainly: TNFα in testis of I/R rats (ELISA). It is filed as in vivo. Particulars: i.p. 1 h before ischemia, dose equivalent to 30 mg NAC, mean ± S.E.M, n=6. The procedure:
as §1, §3, §4

Data set [5] deals with caspase-3. Put plainly: Caspase-3 level in serum of testicular I/R rats (ELISA). It counts as in vivo. Particulars: mean ± S.E.M, n=6. The procedure:
as §1
Caspases can delay apoptosis, implicating a potential role in drug screening efforts. Therefore, we studied the mechanism of the caspase-3 inhibition activity. Caspase-3 was assayed in the serum of rats treated with 6a–g in comparison with sham and the NAC treated group, as shown in Table S5 (Supplementary Materials).
as §4

In the case of `Cc1ccc2[nH]c(=O)cc(-n3cc(COc4cc(=O)[nH]c5ccccc45)nn3)c2c1` [6b, 6-Methyl-4-(4-(((2-oxo-1,2-dihydroquinolin-4-yl)oxy)methyl)-1H-1,2,3-triazol-1-yl)quinolin-2(1H)-one], the melting point is 298 °C. In data set [1], the “Testicular TAC” value is recorded as 4.62±0.33 mmol/g tissue. Moreover, the Testicular testosterone in data set [2] came out at 5.07±0.45. Besides, in data set [3], the “Testicular MDA” value is on record as 61.84±4.77 nmol/g tissue. The TNF-α in data set [4] stood at 107.90 ± 2.96 pg/mL. In data set [5], the Caspase-3 level was 2.94 ± 0.28 ng/mL.
Compound `O=c1cc(OCc2cn(-c3cc(=O)[nH]c4ccccc34)nn2)c2ccccc2[nH]1` [6a, 4-((1-(2-Oxo-1,2-dihydroquinolin-4-yl)-1H-1,2,3-triazol-4-yl)methoxy)quinolin-2(1H)-one] showed a melting point of 300 to 302 °C. Also, in data set [1], the “Testicular TAC” value stood at 5.48±0.41 mmol/g tissue. In addition, the Testicular testosterone in data set [2] came to 4.93±0.38. Also, the “Testicular MDA” value in data set [3] was found to be 62.38±4.23 nmol/g tissue. Also, the TNF-α in data set [4] is 106.40 ± 4.44 pg/mL. The Caspase-3 level in data set [5] was found to be 2.66 ± 0.21 ng/mL.

The melting point is the temperature of the solid-liquid transition.
